Data from the supplement of paper PMC10307832.

Tests used:
Assay in all cases: relative viability (nuclei count vs DMSO), 5 days (fraction); higher = more cells survive
[1] = compound: CCn1c(-c2nonc2N)nc2cnc(Oc3cccc(NC(=O)c4ccc(OCCN5CCOCC5)cc4)c3)cc21 + Cc1cc(Nc2cc(N3CCN(C)CC3)nc(Sc3ccc(NC(=O)C4CC4)cc3)n2)n[nH]1 [Tozasertib] (partner 0.1 µM)
Outline: (§1)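 Values are medians from duplicate plates. Each reflects relative viability, defined as the nuclei count of treated wells over that of vehicle wells. Lung cancer cell lines in 1536-well plates were pin-tool dosed one day after seeding with one drug alone or with a fixed anchor-drug dose plus five library-drug doses (not always all listed) in √10 steps, then fixed, stained and imaged at 4× after 5 days.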

Mirin + Palbociclib = compound: N=C1NC(=O)/C(=C/c2ccc(O)cc2)S1 [Mirin] + CC(=O)c1c(C)c2cnc(Nc3ccc(N4CCNCC4)cn3)nc2n(C2CCCC2)c1=O [Palbociclib] (partner 0.5 µM)
Outline: as §1

Mirin + Alpelisib = compound: N=C1NC(=O)/C(=C/c2ccc(O)cc2)S1 [Mirin] + Cc1nc(NC(=O)N2CCC[C@H]2C(N)=O)sc1-c1ccnc(C(C)(C)C(F)(F)F)c1 [Alpelisib] (partner 2 µM)
Outline: as §1

Mirin + Decitabine = compound: N=C1NC(=O)/C(=C/c2ccc(O)cc2)S1 [Mirin] + Nc1ncn([C@H]2C[C@H](O)[C@@H](CO)O2)c(=O)n1 [Decitabine] (partner 2 µM)
Outline: as §1

NCI-H520
relative viability ([1]; first compound 0.04 µM): 0.419 | relative viability ([1]; first compound 0.1265 µM): 0.368 | relative viability ([1]; first compound 0.4 µM): 0.359 | relative viability ([1]; first compound 1.265 µM): 0.345 | relative viability ([1]; first compound 4 µM): 0.378 | relative viability (Mirin + Palbociclib; first compound 0.25 µM): 0.214 | relative viability (Mirin + Palbociclib; first compound 0.7906 µM): 0.267 | relative viability (Mirin + Palbociclib; first compound 2.5 µM): 0.245 | relative viability (Mirin + Palbociclib; first compound 7.906 µM): 0.188 | relative viability (Mirin + Palbociclib; first compound 25 µM): 0.138 | relative viability (Mirin + Alpelisib; first compound 0.25 µM): 1.01 | relative viability (Mirin + Alpelisib; first compound 0.7906 µM): 0.834 | relative viability (Mirin + Alpelisib; first compound 2.5 µM): 0.883 | relative viability (Mirin + Alpelisib; first compound 7.906 µM): 0.665 | relative viability (Mirin + Alpelisib; first compound 25 µM): 0.522 | relative viability (Mirin + Decitabine; first compound 0.25 µM): 0.531 | relative viability (Mirin + Decitabine; first compound 0.7906 µM): 0.563 | relative viability (Mirin + Decitabine; first compound 2.5 µM): 0.494 | relative viability (Mirin + Decitabine; first compound 7.906 µM): 0.374 | relative viability (Mirin + Decitabine; first compound 25 µM): 0.479

HCC-366
relative viability ([1]; first compound 0.04 µM): 0.134 | relative viability ([1]; first compound 0.1265 µM): 0.105 | relative viability ([1]; first compound 0.4 µM): 0.0696 | relative viability ([1]; first compound 1.265 µM): 0.0938 | relative viability ([1]; first compound 4 µM): 0.0791 | relative viability (Mirin + Palbociclib; first compound 0.25 µM): 0.35 | relative viability (Mirin + Palbociclib; first compound 0.7906 µM): 0.39 | relative viability (Mirin + Palbociclib; first compound 2.5 µM): 0.405 | relative viability (Mirin + Palbociclib; first compound 7.906 µM): 0.404 | relative viability (Mirin + Palbociclib; first compound 25 µM): 0.366 | relative viability (Mirin + Alpelisib; first compound 0.25 µM): 0.34 | relative viability (Mirin + Alpelisib; first compound 0.7906 µM): 0.37 | relative viability (Mirin + Alpelisib; first compound 2.5 µM): 0.545 | relative viability (Mirin + Alpelisib; first compound 7.906 µM): 0.296 | relative viability (Mirin + Alpelisib; first compound 25 µM): 0.253 | relative viability (Mirin + Decitabine; first compound 0.25 µM): 0.342 | relative viability (Mirin + Decitabine; first compound 0.7906 µM): 0.315 | relative viability (Mirin + Decitabine; first compound 2.5 µM): 0.325 | relative viability (Mirin + Decitabine; first compound 7.906 µM): 0.322 | relative viability (Mirin + Decitabine; first compound 25 µM): 0.374

NCI-H2085
relative viability ([1]; first compound 0.04 µM): 0.961 | relative viability ([1]; first compound 0.1265 µM): 0.8 | relative viability ([1]; first compound 0.4 µM): 0.733 | relative viability ([1]; first compound 1.265 µM): 0.633 | relative viability ([1]; first compound 4 µM): 0.538 | relative viability (Mirin + Palbociclib; first compound 0.25 µM): 0.458 | relative viability (Mirin + Palbociclib; first compound 0.7906 µM): 0.47 | relative viability (Mirin + Palbociclib; first compound 2.5 µM): 0.495 | relative viability (Mirin + Palbociclib; first compound 7.906 µM): 0.562 | relative viability (Mirin + Palbociclib; first compound 25 µM): 0.486 | relative viability (Mirin + Alpelisib; first compound 0.25 µM): 0.908 | relative viability (Mirin + Alpelisib; first compound 0.7906 µM): 1.07 | relative viability (Mirin + Alpelisib; first compound 2.5 µM): 0.97 | relative viability (Mirin + Alpelisib; first compound 7.906 µM): 0.843 | relative viability (Mirin + Alpelisib; first compound 25 µM): 0.674 | relative viability (Mirin + Decitabine; first compound 0.25 µM): 0.562 | relative viability (Mirin + Decitabine; first compound 0.7906 µM): 0.537 | relative viability (Mirin + Decitabine; first compound 2.5 µM): 0.546 | relative viability (Mirin + Decitabine; first compound 7.906 µM): 0.553 | relative viability (Mirin + Decitabine; first compound 25 µM): 0.604

PC-3 [JPC-3]
relative viability ([1]; first compound 0.04 µM): 0.94 | relative viability ([1]; first compound 0.1265 µM): 0.866 | relative viability ([1]; first compound 0.4 µM): 1.03 | relative viability ([1]; first compound 1.265 µM): 0.861 | relative viability ([1]; first compound 4 µM): 0.77 | relative viability (Mirin + Palbociclib; first compound 0.25 µM): 0.596 | relative viability (Mirin + Palbociclib; first compound 0.7906 µM): 0.574 | relative viability (Mirin + Palbociclib; first compound 2.5 µM): 0.551 | relative viability (Mirin + Palbociclib; first compound 7.906 µM): 0.524 | relative viability (Mirin + Palbociclib; first compound 25 µM): 0.631 | relative viability (Mirin + Alpelisib; first compound 0.25 µM): 1.04 | relative viability (Mirin + Alpelisib; first compound 0.7906 µM): 1.02 | relative viability (Mirin + Alpelisib; first compound 2.5 µM): 1.03 | relative viability (Mirin + Alpelisib; first compound 7.906 µM): 1.07 | relative viability (Mirin + Alpelisib; first compound 25 µM): 1.18 | relative viability (Mirin + Decitabine; first compound 0.25 µM): 0.818 | relative viability (Mirin + Decitabine; first compound 0.7906 µM): 0.825 | relative viability (Mirin + Decitabine; first compound 2.5 µM): 0.825 | relative viability (Mirin + Decitabine; first compound 7.906 µM): 0.76 | relative viability (Mirin + Decitabine; first compound 25 µM): 0.836

HOP-62
relative viability ([1]; first compound 0.04 µM): 0.393 | relative viability ([1]; first compound 0.1265 µM): 0.445 | relative viability ([1]; first compound 0.4 µM): 0.344 | relative viability ([1]; first compound 1.265 µM): 0.283 | relative viability ([1]; first compound 4 µM): 0.234 | relative viability (Mirin + Palbociclib; first compound 0.25 µM): 0.465 | relative viability (Mirin + Palbociclib; first compound 0.7906 µM): 0.536 | relative viability (Mirin + Palbociclib; first compound 2.5 µM): 0.46 | relative viability (Mirin + Palbociclib; first compound 7.906 µM): 0.381 | relative viability (Mirin + Palbociclib; first compound 25 µM): 0.458 | relative viability (Mirin + Alpelisib; first compound 0.25 µM): 0.969 | relative viability (Mirin + Alpelisib; first compound 0.7906 µM): 1.02 | relative viability (Mirin + Alpelisib; first compound 2.5 µM): 1.13 | relative viability (Mirin + Alpelisib; first compound 25 µM): 0.939 | relative viability (Mirin + Decitabine; first compound 0.25 µM): 0.221 | relative viability (Mirin + Decitabine; first compound 0.7906 µM): 0.188 | relative viability (Mirin + Decitabine; first compound 2.5 µM): 0.203 | relative viability (Mirin + Decitabine; first compound 7.906 µM): 0.224 | relative viability (Mirin + Decitabine; first compound 25 µM): 0.218

NCI-H2126
relative viability ([1]; first compound 0.04 µM): 0.898 | relative viability ([1]; first compound 0.1265 µM): 0.849 | relative viability ([1]; first compound 0.4 µM): 0.861 | relative viability ([1]; first compound 4 µM): 0.378 | relative viability (Mirin + Palbociclib; first compound 0.25 µM): 0.342 | relative viability (Mirin + Palbociclib; first compound 0.7906 µM): 0.361 | relative viability (Mirin + Palbociclib; first compound 2.5 µM): 0.332 | relative viability (Mirin + Palbociclib; first compound 7.906 µM): 0.394 | relative viability (Mirin + Palbociclib; first compound 25 µM): 0.396 | relative viability (Mirin + Alpelisib; first compound 0.25 µM): 0.758 | relative viability (Mirin + Alpelisib; first compound 0.7906 µM): 0.724 | relative viability (Mirin + Alpelisib; first compound 2.5 µM): 0.784 | relative viability (Mirin + Alpelisib; first compound 7.906 µM): 0.679 | relative viability (Mirin + Alpelisib; first compound 25 µM): 0.688 | relative viability (Mirin + Decitabine; first compound 0.25 µM): 0.556 | relative viability (Mirin + Decitabine; first compound 0.7906 µM): 0.534 | relative viability (Mirin + Decitabine; first compound 2.5 µM): 0.586 | relative viability (Mirin + Decitabine; first compound 7.906 µM): 0.557 | relative viability (Mirin + Decitabine; first compound 25 µM): 0.461

NCI-H2087
relative viability ([1]; first compound 0.04 µM): 0.252 | relative viability ([1]; first compound 0.1265 µM): 0.243 | relative viability ([1]; first compound 0.4 µM): 0.218 | relative viability ([1]; first compound 1.265 µM): 0.152 | relative viability ([1]; first compound 4 µM): 0.142 | relative viability (Mirin + Palbociclib; first compound 0.25 µM): 0.227 | relative viability (Mirin + Palbociclib; first compound 0.7906 µM): 0.297 | relative viability (Mirin + Palbociclib; first compound 2.5 µM): 0.249 | relative viability (Mirin + Palbociclib; first compound 7.906 µM): 0.133 | relative viability (Mirin + Palbociclib; first compound 25 µM): 0.318 | relative viability (Mirin + Alpelisib; first compound 0.25 µM): 1.07 | relative viability (Mirin + Alpelisib; first compound 0.7906 µM): 1.06 | relative viability (Mirin + Alpelisib; first compound 2.5 µM): 1.13 | relative viability (Mirin + Alpelisib; first compound 7.906 µM): 1.24 | relative viability (Mirin + Alpelisib; first compound 25 µM): 1.08 | relative viability (Mirin + Decitabine; first compound 0.25 µM): 0.245 | relative viability (Mirin + Decitabine; first compound 0.7906 µM): 0.215 | relative viability (Mirin + Decitabine; first compound 2.5 µM): 0.286 | relative viability (Mirin + Decitabine; first compound 7.906 µM): 0.24 | relative viability (Mirin + Decitabine; first compound 25 µM): 0.208

NCI-H1793
relative viability ([1]; first compound 0.04 µM): 0.332 | relative viability ([1]; first compound 0.1265 µM): 0.473 | relative viability ([1]; first compound 0.4 µM): 0.341 | relative viability ([1]; first compound 1.265 µM): 0.307 | relative viability ([1]; first compound 4 µM): 0.293 | relative viability (Mirin + Palbociclib; first compound 0.25 µM): 0.331 | relative viability (Mirin + Palbociclib; first compound 2.5 µM): 0.349 | relative viability (Mirin + Palbociclib; first compound 7.906 µM): 0.335 | relative viability (Mirin + Palbociclib; first compound 25 µM): 0.339 | relative viability (Mirin + Alpelisib; first compound 0.25 µM): 0.724 | relative viability (Mirin + Alpelisib; first compound 0.7906 µM): 0.747 | relative viability (Mirin + Alpelisib; first compound 2.5 µM): 0.775 | relative viability (Mirin + Alpelisib; first compound 7.906 µM): 0.764 | relative viability (Mirin + Alpelisib; first compound 25 µM): 0.482 | relative viability (Mirin + Decitabine; first compound 0.25 µM): 0.472 | relative viability (Mirin + Decitabine; first compound 2.5 µM): 0.434 | relative viability (Mirin + Decitabine; first compound 7.906 µM): 0.52 | relative viability (Mirin + Decitabine; first compound 25 µM): 0.48

RERF-LC-KJ
relative viability ([1]; first compound 0.04 µM): 0.528 | relative viability ([1]; first compound 0.1265 µM): 0.318 | relative viability ([1]; first compound 0.4 µM): 0.283 | relative viability ([1]; first compound 1.265 µM): 0.249 | relative viability ([1]; first compound 4 µM): 0.217 | relative viability (Mirin + Palbociclib; first compound 0.25 µM): 1.14 | relative viability (Mirin + Palbociclib; first compound 0.7906 µM): 1.09 | relative viability (Mirin + Palbociclib; first compound 2.5 µM): 1.2 | relative viability (Mirin + Palbociclib; first compound 7.906 µM): 1.2 | relative viability (Mirin + Palbociclib; first compound 25 µM): 1.1 | relative viability (Mirin + Alpelisib; first compound 0.25 µM): 0.822 | relative viability (Mirin + Alpelisib; first compound 0.7906 µM): 0.898 | relative viability (Mirin + Alpelisib; first compound 2.5 µM): 0.956 | relative viability (Mirin + Alpelisib; first compound 7.906 µM): 0.916 | relative viability (Mirin + Alpelisib; first compound 25 µM): 0.75 | relative viability (Mirin + Decitabine; first compound 0.25 µM): 0.691 | relative viability (Mirin + Decitabine; first compound 0.7906 µM): 0.753 | relative viability (Mirin + Decitabine; first compound 2.5 µM): 0.684 | relative viability (Mirin + Decitabine; first compound 7.906 µM): 0.622 | relative viability (Mirin + Decitabine; first compound 25 µM): 0.561
